Laboratory results taken from US20140323428A1, “ANTINEURITIC PHARMACEUTICAL COMBINATION AND COMPOSITIONS” (priority 2011, published 2014).
Entries after “also recorded” stand apart in the source; their conditions may differ. Where two headings read alike, the source gives them in different places.

Legend:
[1] = test system: rats having neuropathic pain; assay: Motor incoordination observed after oral administration in the allodynia study; conditions: rat, in vivo, 300 mg/kg
Experimental: However, with the higher dose (300 mg/kg) the effect was maintained even for 24 hours.
With the higher dose (30 mg/kg) motor incoordination was observed between 1 and 7 hours, whereas with the 10 mg/kg dose, incoordination was observed between 3 and 4 hours after the administration.

[2] = test system: rats subjected to L5/L6 spinal nerve ligation; assay: Tactile allodynia (von Frey filaments, 50% withdrawal threshold, % MPE) in rats with L5/L6 spinal nerve ligation; format: in vivo, rat; conditions: for ED50: Rattus norvegicus, read-out: ED50 of the anti-allodynic effect, antiepileptic alone; for Effect on 50% withdrawal threshold (anti-allodynic effect): oxcarbazepine 30-300 mg/kg, pregabalin 0.3-30 mg/kg, vitamin B12 0.06-6 mg/kg
Experimental: 6-week-old female Wistar rats having a body weight of 140-160 g, were used. Each rat was studied only once and sacrified. The Guidelines for pain investigations in animals (Zimmermann, 1983) were used in all the experiments.
The rats were anesthesized via intraperitoneal route with a mixture of ketamine/xylazine (45 and 12 mg/kg, respectively). A partial incision was carried out in the left transverse lumbar area for isolating and ligating the L5 and L6 left spinal nerves with a silk suture 6-0. The ligation was carried out next to the formation of the sciatic nerve and distal to the dorsal root ganglion. Subsequently, the wound was sutured. Conduct tests were performed 12 days after surgery.
For the determination of tactile allodynia, the rats were placed in individual plastic boxes having a stainless steel metallic mesh bottom during 30 minutes, for their adaptation. The tactile threshold test is based in the induction of the animal's left paw withdrawal to gentle mechanical stimuli. The paw was stimulated by applying mechanical force using different Von Frey filaments ranging from 2.36 g to 6.65 g. The thinner the filament's thickness is, the fewer force is applied, and viceversa. For stimulating the animal's paw, the intermediate filament (3.41 g) was firstly used. The left paw elevation in ten seconds was taken as a positive response and a stimulus with a lower caliber filament was applied. If no withdrawal of the animal's paw occurred, it was considered as a negative response, then a stronger stimulus was applied with the next filament until the animal responded.
Once a change in the response took place, either positive or negative, the stimulation was carried out 4 more times, taking a series of 6 patterns of positive and negative responses (Chaplan et al., 1994). The response patterns were tabulated and the 50% response threshold was calculated by using the Dixon formula (1980).
Graphs of the 50% withdrawal threshold (g) as a function of time (h) were constructed from the obtained data
50% withdrawal threshold (g)=(10^[Xf+Kδ])/10,000
From the data of the 50% withdrawal threshold, bar graphs and dose response curves were constructed for the percentage of anti-allodynic effect represented as the percentage of the maximum possible effect (% MPE), by using the following formula:
% MPE=[(AUC drug−AUC vehicle/(AUC sham−AUC vehicle)]×100
In both curves the value of the ED50 was determined.

[3] = cited from earlier work
[4] = test system: plasmatic proteins; conditions: cited from earlier work
[5] = test system: patients; conditions: doses of from 300 to 600 mg; cited from earlier work
[6] = test system: tactile allodynia induced by the linkage of the spinal nerves L5 and L6; conditions: cited from earlier work

Compound | Motor incoordination, time window after administration [1] [h] | ED50 ([2]; oral, single agent, from dose-response curves) [mg/kg] | Time of maximum anti-allodynic effect ([2]; oral) | Time for which the anti-allodynic effect was maintained ([2]; oral, higher dose 300 mg/kg) [h] | Effect on 50% withdrawal threshold (anti-allodynic effect) ([2]; oral) | Bioavailability ([3]; after an oral dose) [%] | Time of maximum plasma peaks ([3]; after an oral dose) | Excreted by the urinary route ([3]; in vivo) | Half-life of elimination ([3]; in vivo) [h] | Metabolism ([3]; in vivo) | Oral absorption ([3]; oral) | Binding to plasmatic proteins [4] | ED50 ([2]; po) [mg/kg] | Analgesic effect at 24 hours ([2]; oral, 24 hours after administration) | Adverse reaction: dizziness [5] | Adverse reaction: drowsiness [5] | Effect on tactile allodynia [6] | Analgesic effect at 8 hours ([2]; oral, 8 hours after administration)
NC(=O)N1c2ccccc2CC(=O)c2ccccc21 [oxcarbazepine] | 2 to 8 | 78.8 | about 3 hours | ≥ 24 | dose-dependent way; also recorded: significantly increased |  |  |  |  |  |  |  |  |  |  |  |  | 
CC(C)C[C@H](CN)CC(=O)O [pregabalin] |  |  | about 2 hours |  | dose-dependent way; also recorded: significantly increased | 90 | an hour and a half | about 98% | 6.3 | minimal metabolism | quickly absorbed | does not link to plasmatic proteins | 3.3 | no longer observed | 27-46% | 15-25% |  | 
cyanocobalamin [vitamin B12] |  |  | about 3 hours |  | significantly increased |  |  |  |  |  |  |  |  |  |  |  | capable of reducing tactile allodynia | no longer observed
